# Results published in US20260262643A1, “HERBICIDAL BENZOXAZINES” (FMC CORPORATION, priority 2022, published 2026).
# How the values were obtained:
# [1] = tested on: kochia; experiment: Test C postemergence; assay type: in vivo, Bassia scoparia; details: 125 g ai/ha, postemergence, 10 days; 0 to 100 scale, 0 no effect, 100 complete control
# Procedure, shortened: (§1)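 Pre: seeds in loam/sand, directed soil spray. Post: 1–2 leaf plants, 2–10 cm. Cmpd in non-phytotoxic solvent + surfactant. Greenhouse 10 d; visual rating vs untreated, 0 = none, 100 = complete control.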
# [2] = tested on: corn; experiment: Test C postemergence; assay type: in vivo, Zea mays; details: 10 days
# Procedure, shortened: as §1
# [3] = tested on: galium; experiment: Test C postemergence; assay type: in vivo, Galium aparine; details: 10 days
# Procedure, shortened: as §1
# [4] = tested on: sedge, umbrella; experiment: Test D flooded paddy test; assay type: in vivo, Cyperus difformis; details: 250 g ai/ha, applied to paddy water, visual rating after 13 to 14 days, scale 0 to 100 (0 no effect, 100 complete control)
# Procedure, shortened: (§2)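 At the 2-leaf stage, floodwater 3 cm deep received the test compound; that depth persisted throughout. Plants scored visually 13 to 14 days on, 0 (no effect) to 100 (complete control), dash indicating no result.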
# [5] = tested on: ryegrass, Italian; experiment: Test C preemergence; assay type: in vivo, Lolium multiflorum; details: preemergence, 0 to 100 scale (0 no effect, 100 complete control)
# Procedure, shortened: as §1
# [6] = tested on: rice; experiment: Test D flooded paddy test; assay type: in vivo, Oryza sativa; details: 250 g ai/ha, applied to paddy water, visual rating after 13 to 14 days, scale 0 to 100 (0 no effect, 100 complete control)
# Procedure, shortened: as §2
# [7] = tested on: pigweed, palmer; experiment: Test C preemergence; assay type: in vivo, Amaranthus palmeri; details: preemergence, 0 to 100 scale (0 no effect, 100 complete control)
# Procedure, shortened: as §1
# [8] = tested on: soybean; experiment: Test C preemergence; assay type: in vivo, Glycine max; details: preemergence, 0 to 100 scale (0 no effect, 100 complete control)
# Procedure, shortened: as §1
# [9] = tested on: ragweed; experiment: Test C preemergence; assay type: in vivo, Ambrosia artemisiifolia; details: preemergence, 0 to 100 scale (0 no effect, 100 complete control)
# Procedure, shortened: as §1
# [10] = tested on: oat, wild; experiment: Test C postemergence; assay type: in vivo, Avena fatua; details: 125 g ai/ha, postemergence, 10 days; 0 to 100 scale, 0 no effect, 100 complete control
# Procedure, shortened: as §1
# [11] = tested on: blackgrass; experiment: Test C preemergence; assay type: in vivo, Alopecurus myosuroides; details: 0 to 100 scale (0 no effect, 100 complete control); for Plant response rating, Blackgrass: Preemergence, 500 g ai/ha, visual rating after 10 days; for Blackgrass plant response rating: Test C, preemergence, 125 g ai/ha
# Procedure, shortened: as §1
# [12] = tested on: blackgrass; experiment: Test C postemergence; assay type: in vivo, Alopecurus myosuroides; details: 10 days
# Procedure, shortened: as §1
# [13] = tested on: green foxtail; experiment: Test C preemergence; assay type: in vivo, Setaria viridis; details: preemergence, 0 to 100 scale (0 no effect, 100 complete control)
# Procedure, shortened: as §1
# [14] = tested on: soybean; experiment: Test C postemergence; assay type: in vivo, Glycine max; details: 125 g ai/ha, postemergence, 10 days; 0 to 100 scale, 0 no effect, 100 complete control
# Procedure, shortened: as §1
# [15] = tested on: kochia; experiment: Test C preemergence; assay type: in vivo, Bassia scoparia; details: preemergence, 0 to 100 scale (0 no effect, 100 complete control)
# Procedure, shortened: as §1
# [16] = tested on: barnyardgrass; experiment: Test C postemergence; assay type: in vivo, Echinochloa crusgalli; details: 10 days
# Procedure, shortened: as §1
# [17] = tested on: pigweed, palmer; experiment: Test C postemergence; assay type: in vivo, Amaranthus palmeri; details: 125 g ai/ha, postemergence, 10 days; 0 to 100 scale, 0 no effect, 100 complete control
# Procedure, shortened: as §1
# [18] = tested on: green foxtail; experiment: Test C postemergence; assay type: in vivo, Setaria viridis; details: 10 days
# Procedure, shortened: as §1
# [19] = tested on: ragweed; experiment: Test C postemergence; assay type: in vivo, Ambrosia artemisiifolia; details: 125 g ai/ha, postemergence, 10 days; 0 to 100 scale, 0 no effect, 100 complete control
# Procedure, shortened: as §1
# [20] = tested on: oat, wild; experiment: Test C preemergence; assay type: in vivo, Avena fatua; details: preemergence, 0 to 100 scale (0 no effect, 100 complete control)
# Procedure, shortened: as §1
# [21] = tested on: ducksalad; experiment: Test D flooded paddy test; assay type: in vivo, Heteranthera limosa; details: 250 g ai/ha, applied to paddy water, visual rating after 13 to 14 days, scale 0 to 100 (0 no effect, 100 complete control)
# Procedure, shortened: as §2
# [22] = tested on: ryegrass, Italian; experiment: Test C postemergence; assay type: in vivo, Lolium multiflorum; details: 125 g ai/ha, postemergence, 10 days; 0 to 100 scale, 0 no effect, 100 complete control
# Procedure, shortened: as §1
# [23] = tested on: horseweed; experiment: Test C postemergence; assay type: in vivo, Erigeron canadensis; details: 10 days
# Procedure, shortened: as §1
# [24] = tested on: wheat; experiment: Test C preemergence; assay type: in vivo, Triticum aestivum; details: preemergence, 0 to 100 scale (0 no effect, 100 complete control)
# Procedure, shortened: as §1
# [25] = tested on: barnyardgrass; experiment: Test D flooded paddy test; assay type: in vivo, Echinochloa crus-galli; details: 250 g ai/ha, applied to paddy water, visual rating after 13 to 14 days, scale 0 to 100 (0 no effect, 100 complete control)
# Procedure, shortened: as §2
# [26] = tested on: corn; experiment: Test C preemergence; assay type: in vivo, Zea mays; details: preemergence, 0 to 100 scale (0 no effect, 100 complete control)
# Procedure, shortened: as §1
# [27] = tested on: barnyardgrass; experiment: Test C preemergence; assay type: in vivo, Echinochloa crusgalli; details: 0 to 100 scale (0 no effect, 100 complete control); for Plant response rating, Barnyardgrass: Preemergence, 500 g ai/ha, visual rating after 10 days; for Barnyardgrass plant response rating: Test C, preemergence, 125 g ai/ha
# Procedure, shortened: as §1
# [28] = tested on: wheat; experiment: Test C postemergence; assay type: in vivo, Triticum aestivum; details: 125 g ai/ha, postemergence, 10 days; 0 to 100 scale, 0 no effect, 100 complete control
# Procedure, shortened: as §1
# [29] = 125 g ai/ha, postemergence, 0 to 100 scale, 0 no effect, 100 complete control
# [30] = Postemergence, 500 g ai/ha, visual 0 to 100 scale (0 no effect, 100 complete control)
smiles,measurement,setting,value
COc1ccc(-n2cncn2)cc1C(=O)N1C[C@H](C)Oc2c(F)cccc21 [Compound 270],"Plant response rating, Kochia",[1],30
same,"Plant response rating, Corn",[2]; [29],40
same,"Plant response rating, Corn",[2]; [30],90
same,"Plant response rating, Galium",[3]; [29],100
same,"Plant response rating, Galium",[3]; [30],100
same,"Plant response rating, Sedge, Umbrella (Flood)",[4],95
same,"Ryegrass, Italian plant response rating",[5]; 500 g ai/ha,100
same,"Ryegrass, Italian plant response rating","[5]; Test C, 125 g ai/ha",90
same,"Plant response rating, Rice (Flood)",[6],10
same,"Pigweed, Palmer plant response rating",[7]; 500 g ai/ha,100
same,"Pigweed, Palmer plant response rating","[7]; Test C, 125 g ai/ha",90
same,Soybean plant response rating,[8]; 500 g ai/ha,100
same,Soybean plant response rating,"[8]; Test C, 125 g ai/ha",90
same,Ragweed plant response rating,[9]; 500 g ai/ha,60
same,Ragweed plant response rating,"[9]; Test C, 125 g ai/ha",10
same,"Plant response rating, Oat, Wild",[10],90
same,"Plant response rating, Blackgrass",[11],90
same,Blackgrass plant response rating,[11],80
same,"Plant response rating, Blackgrass",[12]; [29],80
same,"Plant response rating, Blackgrass",[12]; [30],90
same,"Foxtail, Green plant response rating",[13]; 500 g ai/ha,100
same,"Foxtail, Green plant response rating","[13]; Test C, 125 g ai/ha",100
same,"Plant response rating, Soybean",[14],100
same,Kochia plant response rating,[15]; 500 g ai/ha,90
same,Kochia plant response rating,"[15]; Test C, 125 g ai/ha",60
same,"Plant response rating, Barnyardgrass",[16]; [29],90
same,"Plant response rating, Barnyardgrass",[16]; [30],100
same,"Plant response rating, Pigweed, Palmer",[17],40
same,"Plant response rating, Foxtail, Green",[18]; [29],80
same,"Plant response rating, Foxtail, Green",[18]; [30],90
same,"Plant response rating, Ragweed",[19],30
same,"Oat, Wild plant response rating",[20]; 500 g ai/ha,90
same,"Oat, Wild plant response rating","[20]; Test C, 125 g ai/ha",40
same,"Plant response rating, Ducksalad (Flood)",[21],100
same,"Plant response rating, Ryegrass, Italian",[22],80
same,"Plant response rating, Horseweed",[23]; [29],20
same,"Plant response rating, Horseweed",[23]; [30],60
same,Wheat plant response rating,[24]; 500 g ai/ha,90
same,Wheat plant response rating,"[24]; Test C, 125 g ai/ha",40
same,"Plant response rating, Barnyardgrass (Flood)",[25],15
same,Corn plant response rating,[26]; 500 g ai/ha,40
same,Corn plant response rating,"[26]; Test C, 125 g ai/ha",0
same,"Plant response rating, Barnyardgrass",[27],100
same,Barnyardgrass plant response rating,[27],70
same,"Plant response rating, Wheat",[28],80
COc1ccc(-n2cnc(C(C)(C)O)n2)cc1C(=O)N1C[C@H](C)Oc2c(C)cccc21 [Compound 280],"Plant response rating, Kochia",[1],60
same,"Plant response rating, Corn",[2]; [29],90
same,"Plant response rating, Corn",[2]; [30],90
same,"Plant response rating, Galium",[3]; [29],100
same,"Plant response rating, Galium",[3]; [30],100
same,"Plant response rating, Sedge, Umbrella (Flood)",[4],95
same,"Ryegrass, Italian plant response rating",[5]; 500 g ai/ha,90
same,"Ryegrass, Italian plant response rating","[5]; Test C, 125 g ai/ha",90
same,"Plant response rating, Rice (Flood)",[6],20
same,"Pigweed, Palmer plant response rating",[7]; 500 g ai/ha,100
same,"Pigweed, Palmer plant response rating","[7]; Test C, 125 g ai/ha",100
same,Soybean plant response rating,[8]; 500 g ai/ha,100
same,Soybean plant response rating,"[8]; Test C, 125 g ai/ha",90
same,Ragweed plant response rating,[9]; 500 g ai/ha,100
same,Ragweed plant response rating,"[9]; Test C, 125 g ai/ha",90
same,"Plant response rating, Oat, Wild",[10],80
same,"Plant response rating, Blackgrass",[11],80
same,Blackgrass plant response rating,[11],70
same,"Plant response rating, Blackgrass",[12]; [29],80
same,"Plant response rating, Blackgrass",[12]; [30],100
same,"Foxtail, Green plant response rating",[13]; 500 g ai/ha,100
same,"Foxtail, Green plant response rating","[13]; Test C, 125 g ai/ha",100
same,"Plant response rating, Soybean",[14],100
same,Kochia plant response rating,[15]; 500 g ai/ha,100
same,Kochia plant response rating,"[15]; Test C, 125 g ai/ha",90
same,"Plant response rating, Barnyardgrass",[16]; [29],50
same,"Plant response rating, Barnyardgrass",[16]; [30],90
same,"Plant response rating, Pigweed, Palmer",[17],70
same,"Plant response rating, Foxtail, Green",[18]; [29],60
same,"Plant response rating, Foxtail, Green",[18]; [30],90
same,"Plant response rating, Ragweed",[19],70
same,"Oat, Wild plant response rating",[20]; 500 g ai/ha,90
same,"Oat, Wild plant response rating","[20]; Test C, 125 g ai/ha",60
same,"Plant response rating, Ducksalad (Flood)",[21],70
same,"Plant response rating, Ryegrass, Italian",[22],90
same,"Plant response rating, Horseweed",[23]; [29],30
same,"Plant response rating, Horseweed",[23]; [30],60
same,Wheat plant response rating,[24]; 500 g ai/ha,90
same,Wheat plant response rating,"[24]; Test C, 125 g ai/ha",70
same,"Plant response rating, Barnyardgrass (Flood)",[25],25
same,Corn plant response rating,[26]; 500 g ai/ha,60
same,Corn plant response rating,"[26]; Test C, 125 g ai/ha",30
same,"Plant response rating, Barnyardgrass",[27],100
same,Barnyardgrass plant response rating,[27],100
same,"Plant response rating, Wheat",[28],80
